The target in one assay is T1, ATM (Homo sapiens, UniProt Q13315).
T1 construct: detecting phosphorylation of Chk2 in a human non-small cell lung cancer cell line NCI-H460 (ATCC company); host or cells: NCI-H460 human non-small cell lung cancer cells
Briefly: ATM inhibition test (phosphorylation of Chk2 generated by ionizing radiation, AlphaScreen SureFire). The class given is cell-based. As to conditions: phosphorylated Chk2 in NCI-H460 cells, ionizing radiation 8Gy, 1 hour after test compound treatment; read-out: ATM inhibitory activity. In a few lines: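 Phosphorylated Chk2 read by AlphaScreen SureFire in human non-small cell lung cancer NCI-H460 cells, 1 hour after 8Gy ionizing radiation at 37° C. Compound added 1 hour before irradiation. Percent inhibition normalised between irradiated and non-irradiated drug-untreated signals.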
For orientation: In Alpha technology, singlet oxygen from a donor bead excites a nearby acceptor bead.

Assay [1] relates to human non-small cell lung cancer cell line NCI-H460. The assay can be described thus: Cell proliferation inhibition test by sensitivity-enhancing to ionizing radiation (Cell Titer Glo). Format: cell-based. As to conditions: Homo sapiens, NCI-H460, 120 h, concentration in which SER became 2; NCI-H460 cells, ionizing radiation 2 Gy, cultured 120 hour. Summed up:
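Radiosensitisation measured as SER, a ratio of Cell Titer Glo luminescence in irradiated vs unirradiated plates relative to DMSO; SER2, the concentration yielding SER 2, came from sigmoidal regression. Compound (0.1% DMSO) was given 24 h post-seeding, 2 Gy applied 30 min later, then 120 hour culture at 37° C.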
(In ATP-based viability assays light output follows the ATP content of the culture.)

Experimental findings from patent US9586951B2 (FUJIFILM Corporation, priority 2013, dated 2017) are described below.

T1 sequence (Q13315 whole entry): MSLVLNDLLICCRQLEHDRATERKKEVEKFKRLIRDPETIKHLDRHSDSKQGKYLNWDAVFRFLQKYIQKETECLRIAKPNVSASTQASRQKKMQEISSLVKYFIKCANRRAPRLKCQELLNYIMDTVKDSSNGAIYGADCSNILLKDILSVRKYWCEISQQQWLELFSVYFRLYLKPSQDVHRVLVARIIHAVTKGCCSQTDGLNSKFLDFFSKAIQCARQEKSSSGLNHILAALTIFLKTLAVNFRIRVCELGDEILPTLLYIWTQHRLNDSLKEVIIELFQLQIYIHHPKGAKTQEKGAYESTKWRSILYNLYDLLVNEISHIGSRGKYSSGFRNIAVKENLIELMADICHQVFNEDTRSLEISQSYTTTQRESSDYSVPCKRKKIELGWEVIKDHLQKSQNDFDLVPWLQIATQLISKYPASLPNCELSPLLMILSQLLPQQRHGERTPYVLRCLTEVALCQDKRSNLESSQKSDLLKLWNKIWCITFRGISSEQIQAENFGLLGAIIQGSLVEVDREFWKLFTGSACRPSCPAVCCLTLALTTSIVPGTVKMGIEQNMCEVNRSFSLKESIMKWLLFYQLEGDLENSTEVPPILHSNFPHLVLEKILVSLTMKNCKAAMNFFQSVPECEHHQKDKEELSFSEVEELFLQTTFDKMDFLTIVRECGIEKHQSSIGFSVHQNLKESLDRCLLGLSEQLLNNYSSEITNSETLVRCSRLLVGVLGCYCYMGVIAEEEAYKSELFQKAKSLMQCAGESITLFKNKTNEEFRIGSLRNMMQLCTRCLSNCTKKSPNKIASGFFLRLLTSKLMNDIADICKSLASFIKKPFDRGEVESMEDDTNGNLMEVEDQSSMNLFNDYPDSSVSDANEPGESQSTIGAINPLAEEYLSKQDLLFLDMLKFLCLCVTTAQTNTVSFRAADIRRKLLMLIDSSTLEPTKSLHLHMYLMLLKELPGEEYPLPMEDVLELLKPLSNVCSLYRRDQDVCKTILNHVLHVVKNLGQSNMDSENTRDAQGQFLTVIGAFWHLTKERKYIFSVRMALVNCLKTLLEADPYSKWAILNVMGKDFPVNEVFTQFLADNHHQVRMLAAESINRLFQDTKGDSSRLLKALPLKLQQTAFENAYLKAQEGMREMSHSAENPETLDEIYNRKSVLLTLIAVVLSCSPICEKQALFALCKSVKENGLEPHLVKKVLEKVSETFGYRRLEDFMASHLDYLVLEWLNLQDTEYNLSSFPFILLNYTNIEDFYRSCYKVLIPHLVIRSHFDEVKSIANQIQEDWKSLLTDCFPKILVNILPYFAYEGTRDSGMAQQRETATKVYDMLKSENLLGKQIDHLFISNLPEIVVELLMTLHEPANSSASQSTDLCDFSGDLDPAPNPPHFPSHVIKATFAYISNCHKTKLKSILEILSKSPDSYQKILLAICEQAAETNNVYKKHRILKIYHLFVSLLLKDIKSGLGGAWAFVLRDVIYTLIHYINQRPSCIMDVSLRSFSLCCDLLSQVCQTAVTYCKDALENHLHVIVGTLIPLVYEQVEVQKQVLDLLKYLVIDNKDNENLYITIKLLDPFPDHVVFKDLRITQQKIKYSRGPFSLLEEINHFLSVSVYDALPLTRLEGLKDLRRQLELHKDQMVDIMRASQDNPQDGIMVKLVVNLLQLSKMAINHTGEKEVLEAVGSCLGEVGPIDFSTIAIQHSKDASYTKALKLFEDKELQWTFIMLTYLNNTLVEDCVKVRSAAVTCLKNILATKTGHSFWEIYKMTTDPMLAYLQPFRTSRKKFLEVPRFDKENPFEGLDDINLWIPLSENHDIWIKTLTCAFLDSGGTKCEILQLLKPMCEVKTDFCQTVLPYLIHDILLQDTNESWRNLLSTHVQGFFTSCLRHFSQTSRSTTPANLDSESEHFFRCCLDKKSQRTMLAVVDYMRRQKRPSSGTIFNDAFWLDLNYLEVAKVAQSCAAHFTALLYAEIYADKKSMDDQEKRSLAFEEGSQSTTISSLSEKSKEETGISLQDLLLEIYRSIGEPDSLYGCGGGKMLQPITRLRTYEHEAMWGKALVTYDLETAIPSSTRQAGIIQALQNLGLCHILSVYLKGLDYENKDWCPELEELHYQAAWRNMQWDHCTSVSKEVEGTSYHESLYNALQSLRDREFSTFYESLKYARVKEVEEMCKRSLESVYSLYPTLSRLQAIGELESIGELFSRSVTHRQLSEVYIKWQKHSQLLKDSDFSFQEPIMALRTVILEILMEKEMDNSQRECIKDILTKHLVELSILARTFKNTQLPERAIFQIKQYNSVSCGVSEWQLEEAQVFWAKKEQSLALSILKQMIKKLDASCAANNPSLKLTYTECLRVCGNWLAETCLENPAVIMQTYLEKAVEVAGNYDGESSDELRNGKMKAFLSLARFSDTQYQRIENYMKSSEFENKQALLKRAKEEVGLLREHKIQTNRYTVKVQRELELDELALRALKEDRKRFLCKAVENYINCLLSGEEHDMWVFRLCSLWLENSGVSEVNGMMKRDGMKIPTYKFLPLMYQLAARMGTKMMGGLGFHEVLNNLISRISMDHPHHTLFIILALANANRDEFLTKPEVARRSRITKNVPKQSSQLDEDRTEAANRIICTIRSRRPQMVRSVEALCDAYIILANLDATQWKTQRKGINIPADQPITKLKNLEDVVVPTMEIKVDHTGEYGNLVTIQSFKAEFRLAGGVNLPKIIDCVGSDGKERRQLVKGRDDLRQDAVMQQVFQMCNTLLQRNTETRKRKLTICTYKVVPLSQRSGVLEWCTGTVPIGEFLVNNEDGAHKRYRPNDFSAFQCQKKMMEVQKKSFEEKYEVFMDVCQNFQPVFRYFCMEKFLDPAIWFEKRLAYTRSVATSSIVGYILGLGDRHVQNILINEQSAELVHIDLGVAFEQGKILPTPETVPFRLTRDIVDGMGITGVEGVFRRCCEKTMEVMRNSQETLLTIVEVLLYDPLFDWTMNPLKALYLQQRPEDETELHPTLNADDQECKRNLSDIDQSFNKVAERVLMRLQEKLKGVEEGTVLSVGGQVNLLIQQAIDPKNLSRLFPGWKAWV

As to `O=c1cc(N2CCOCC2)cc(-c2cccc3c2Oc2ccc(NCc4cncc(F)c4)cc2S3)[nH]1` [Example 4-8-12, 6-(8-(((5-Fluoropyridin-3-yl)methyl)amino)phenoxathiin-4-yl)-4-morpholino pyridin-2(1H)-one], the IC50 at ATM is less than 100 nM. Further, in assay [1], the SER2 (concentration at which the radiation sensitivity-enhancement ratio reaches 2) lay within 100 to 500 nM.

Turning to `COC[C@H](CN1CCOC[C@H]1C)Nc1ccc2c(c1)Sc1cccc(-c3cc(N4CCOCC4)cc(=O)[nH]3)c1S2` [Example 1-46-4, 6-(7-(((S)-1-Methoxy-3-((R)-3-methylmorpholino)propan-2-yl)amino)thianthren-1-yl)-4-morpholino pyridin-2(1H)-one], on ATM, the IC50 is less than 100 nM. Besides, in assay [1], the SER2 (concentration at which the radiation sensitivity-enhancement ratio reaches 2) was in the range of 100 to 500 nM.

Consider `O=c1cc(N2CCOCC2)cc(-c2c(F)ccc3c2Oc2ccc(NCc4cccc(Cl)n4)cc2C3)[nH]1` [Example 2-46-1, 6-(7-(((6-Chloropyridin-2-yl)methyl)amino)-3-fluoro-9H-xanthen-4-yl)-4-morpholinopyridin-2(1H)-one], for which the IC50 on ATM is less than 100 nM. For the same compound, the SER2 (concentration at which the radiation sensitivity-enhancement ratio reaches 2) in assay [1] is less than 100 nM.

For the compound `CC(CCN1CCOCC1)Nc1ccc2c(c1)Sc1cccc(-c3cc(N4CCOCC4)cc(=O)[nH]3)c1S2` (centres unmarked) [Example 1-42-1, 4-Morpholino-6-(7-((4-morpholinobutan-2-yl)amino)thianthren-1-yl)pyridin-2(1H)-one], at ATM, the IC50 is less than 100 nM. The SER2 (concentration at which the radiation sensitivity-enhancement ratio reaches 2) in assay [1] lay within 100 to 500 nM.

For the compound `COc1ccnc(CNc2ccc3c(c2)Sc2cccc(-c4cc(N5CCOCC5)cc(=O)[nH]4)c2S3)c1` [Example 1-12-4], on ATM, the IC50 was less than 100 nM. Also, the SER2 (concentration at which the radiation sensitivity-enhancement ratio reaches 2) in assay [1] fell in the range of 100 to 500 nM.

Take `CCC(Nc1ccc2c(c1)Cc1cccc(-c3cc(N4CCOCC4)cc(=O)[nH]3)c1O2)c1cncc(OC)c1` (centres unmarked) [Example 2-14-16, 6-(7-((1-(5-Methoxypyridin-3-yl)propyl)amino)-9H-xanthen-4-yl)-4-morpholino pyridin-2 (1H)-one]: at ATM, the IC50 was less than 100 nM. In addition, the SER2 (concentration at which the radiation sensitivity-enhancement ratio reaches 2) in assay [1] is less than 100 nM.

Take `Cc1ccnc(C(CO)Nc2ccc3c(c2)Sc2cccc(-c4cc(N5CCOCC5)cc(=O)[nH]4)c2S3)n1` (centres unmarked) [Example 1-12-90, 6-(7-((2-Hydroxy-1-(4-methylpyrimidin-2-yl)ethyl)amino)thianthren-1-yl)-4-morpholino pyridin-2(1H)-one]: on ATM, the IC50 was less than 100 nM. In addition, the SER2 (concentration at which the radiation sensitivity-enhancement ratio reaches 2) in assay [1] lay in the range of 100 to 500 nM.

For the compound `Cc1cccc(C(CCN(C)C)Nc2ccc3c(c2)Sc2cccc(-c4cc(N5CCOCC5)cc(=O)[nH]4)c2S3)n1` (single isomer, unassigned) [Example 1-22-11-1, 6-(7-((3-(dimethylamino)-1-(6-methylpyridin-2-yl)propyl)amino)thianthren-1-yl)-4-morpholinopyridin-2(1H)-one], the IC50 on ATM was less than 100 nM. Moreover, the SER2 (concentration at which the radiation sensitivity-enhancement ratio reaches 2) in assay [1] was 100 to 500 nM.

Regarding `CC(CN1CCN(c2ccccc2)CC1)Nc1ccc2c(c1)Sc1cccc(-c3cc(N4CCOCC4)cc(=O)[nH]3)c1S2` (centres unmarked) [Example 1-13-15, 4-Morpholino-6-(7-((1-(4-phenylpiperazin-1-yl)propan-2-yl)amino)thianthren-1-yl)pyridin-2 (1H)-one], the IC50 on ATM was less than 100 nM. Also, in assay [1], the SER2 (concentration at which the radiation sensitivity-enhancement ratio reaches 2) lay in the range of 100 to 500 nM.

Consider `O=c1cc(N2CCOCC2)cc(-c2cccc3c2Sc2ccc(NC4CCN(Cc5cccnc5)CC4)cc2S3)[nH]1` [Example 1-24-17, 4-Morpholino-6-(7-((1-(pyridin-3-ylmethyl)piperidin-4-yl)amino)thianthren-1-yl)pyridin-2 (1H)-one], for which, at ATM, the IC50 was less than 100 nM. Moreover, in assay [1], the SER2 (concentration at which the radiation sensitivity-enhancement ratio reaches 2) fell in the range of 100 to 500 nM.

As to `COc1ncc(CNc2ccc3c(c2)Sc2cccc(-c4cc(N5CCOCC5)cc(=O)[nH]4)c2O3)cn1` [Example 4-4-4, 6-(8-(((2-Methoxypyrimidin-5-yl)methyl)amino)phenoxathiin-4-yl)-4-morpholino pyridin-2 (1H)-one], the IC50 at ATM was less than 100 nM. The SER2 (concentration at which the radiation sensitivity-enhancement ratio reaches 2) in assay [1] was in the range of 500 to 2000 nM.

On to `COCc1cc(CNc2ccc3c(c2)Cc2cccc(-c4cc(N5CCOCC5)cc(=O)[nH]4)c2O3)ccn1` [Example 2-21-6, 6-(7-(((2-(Methoxymethyl)pyridin-4-yl)methyl)amino)-9H-xanthen-4-yl)-4-morpholino pyridin-2(1H)-one], for which, at ATM, the IC50 was less than 100 nM. The SER2 (concentration at which the radiation sensitivity-enhancement ratio reaches 2) in assay [1] lay within 500 to 2000 nM.

On to `CNCC(Nc1ccc2c(c1)Sc1cccc(-c3cc(N4CCOCC4)cc(=O)[nH]3)c1S2)c1cc(C)ccn1` (centres unmarked) [Example 1-19-3, 6-(7-((2-(Methylamino)-1-(4-methylpyridin-2-yl)ethyl)amino)thianthren-1-yl)-4-morpholinopyridin-2(1H)-one], for which, at ATM, the IC50 was less than 100 nM. Moreover, the SER2 (concentration at which the radiation sensitivity-enhancement ratio reaches 2) in assay [1] lay within 100 to 500 nM.

As for `O=c1cc(N2CCOCC2)cc(-c2cccc3c2Sc2ccc(NCc4cccc(Cl)n4)cc2S3)[nH]1` [Example 1-12-6, 6-(7-(((6-Chloropyridin-2-yl)methyl)amino)thianthren-1-yl)-4-morpholino pyridin-2 (1H)-one], at ATM, the IC50 was less than 100 nM. Moreover, the SER2 (concentration at which the radiation sensitivity-enhancement ratio reaches 2) in assay [1] lay in the range of 100 to 500 nM.

Consider `COc1cncc(CN2CCC(Nc3ccc4c(c3)Cc3cccc(-c5cc(N6CCOCC6)cc(=O)[nH]5)c3O4)CC2)n1` [Example 2-28-23, 6-(7-((1-((6-Methoxypyrazin-2-yl)methyl)piperidin-4-yl)amino)-9H-xanthen-4-yl)-4-morpholino pyridin-2(1H)-one], for which the IC50 at ATM was less than 100 nM. Further, the SER2 (concentration at which the radiation sensitivity-enhancement ratio reaches 2) in assay [1] was 500 to 2000 nM.

Regarding `O=c1cc(N2CCOCC2)cc(-c2cccc3c2Oc2ccc(NCc4ccc(F)nc4)cc2C3)[nH]1` [Example 2-2-11, 6-(7-(((6-Fluoropyridin-3-yl)methyl)amino)-9H-xanthen-4-yl)-4-morpholino pyridin-2 (1H)-one], the IC50 on ATM is less than 100 nM. For the same compound, in assay [1], the SER2 (concentration at which the radiation sensitivity-enhancement ratio reaches 2) lay within 100 to 500 nM.

Take `O=c1cc(N2CCOCC2)cc(-c2cccc3c2Oc2ccc(NCc4cc(Cl)ccn4)cc2S3)[nH]1` [Example 4-4-2, 6-(8-(((4-Chloropyridin-2-yl)methyl)amino)phenoxathiin-4-yl)-4-morpholino pyridin-2(1H)-one]: at ATM, the IC50 is less than 100 nM. For the same compound, in assay [1], the SER2 (concentration at which the radiation sensitivity-enhancement ratio reaches 2) fell in the range of 100 to 500 nM.

Turning to `Cc1ccc(CNc2ccc3c(c2)Sc2cccc(-c4cc(N5CCOCC5)cc(=O)[nH]4)c2S3)cn1` [Example 1-12-15, 6-(7-(((6-Methylpyridin-3-yl)methyl)amino)thianthren-1-yl)-4-morpholino pyridin-2 (1H)-one], at ATM, the IC50 is less than 100 nM. Moreover, the SER2 (concentration at which the radiation sensitivity-enhancement ratio reaches 2) in assay [1] was in the range of 100 to 500 nM.

Turning to `Cc1cccc(C(C)Nc2ccc3c(c2)Cc2cccc(-c4cc(N5CCOCC5)cc(=O)[nH]4)c2O3)n1` (centres unmarked) [Example 2-14-18, 6-(7-((1-(6-Methylpyridin-2-yl)ethyl)amino)-9H-xanthen-4-yl)-4-morpholino pyridin-2(1H)-one], the IC50 on ATM was in the range of 100 to 500 nM. Also, the SER2 (concentration at which the radiation sensitivity-enhancement ratio reaches 2) in assay [1] was 100 to 500 nM.
